Measured values reported in US8063191B2, “Polynucleotides encoding for fusion proteins with natriuresis activity” (Mayo Foundation for Medical Education and Research, priority 2005, dated 2011).

Tested on: normal dogs that were anesthetized
Assay: Hemodynamic and renal properties of intravenous LA-ANP versus ANP infusion in anesthetized normal dogs
Type: in vivo, dog
Settings: for urinary sodium excretion: baseline 47.0±18.9; for distal fractional sodium reabsorption: baseline 97.2±0.9
Experimental: Studies comparing LA-ANP to ANP were performed in normal dogs that were anesthetized. Equimolar concentrations of a low dose (2 pmol/kg/min) of LA-ANP and ANP were infused intravenously, where ANP was administered at a threshold concentration required to activate cyclic guanosine monophosphate. Equimolar concentrations of a high dose of LA-ANP and ANP (33 pmol/kg/min.) were also infused intravenously. Infusion of ANP or LA-ANP for 45 minutes was performed following a 30 minute baseline period, which was preceded by a 60 minute equilibrium period. Infusion was followed by a 30 minute wash-out period and three recovery (Rec) periods of 30 minutes each. Hemodynamic and renal parameters were measured at baseline (BL), during 45 minutes of infusion, and 120 minutes post-infusion.

[1] = low dose 2 pmol/kg/min i.v., at 120 minutes post-infusion
[2] = low dose 2 pmol/kg/min i.v., during infusion

Row | Compound | natriuresis (in words) [1] | glomerular filtration rate (in words) [2] | mean arterial pressure (in words) [2] | natriuresis (in words) [2] | diuresis (in words) (low dose 2 pmol/kg/min i.v., with infusion) | diuretic effect as compared to ANP (equimolar i.v. infusion) | natriuretic effect as compared to ANP (equimolar i.v. infusion) | glomerular filtration rate, compared to high dose of ANP (high dose 33 pmol/kg/min i.v.) | mean arterial pressure, compared to high dose of ANP (high dose 33 pmol/kg/min i.v.) | urinary sodium excretion (low dose 2 pmol/kg/min i.v., at 120 minutes post-infusion, p<0.01) | distal fractional sodium reabsorption [1] | urinary sodium excretion (low dose 2 pmol/kg/min i.v., during 45 min infusion, p<0.01) | renal blood flow, compared to low dose ANP [2] | diuresis (urine flow) (low dose 2 pmol/kg/min i.v., during infusion, baseline 0.34±0.08, p<0.01) | distal fractional sodium reabsorption [2] | distal fractional sodium reabsorption, overall, compared to low dose of ANP (low dose 2 pmol/kg/min i.v., p<0.01)
1 | CC[C@H](C)[C@@H]1NC(=O)[C@H](CCCNC(=N)N)NC(=O)[C@H](CC(=O)O)NC(=O)[C@H](CCSC)NC(=O)[C@H](CCCNC(=N)N)NC(=O)CNC(=O)CNC(=O)[C@H](Cc2ccccc2)NC(=O)[C@@H](NC(=O)[C@H](CO)NC(=O)[C@H](CO)NC(=O)[C@H](CCCNC(=N)N)NC(=O)[C@H](CCCNC(=N)N)NC(=O)[C@H](CC(C)C)NC(=O)[C@@H](N)CO)CSSC[C@@H](C(=O)N[C@@H](CC(N)=O)C(=O)N[C@@H](CO)C(=O)N[C@@H](Cc2ccccc2)C(=O)N[C@@H](CCCNC(=N)N)C(=O)N[C@@H](Cc2ccc(O)cc2)C(=O)O)NC(=O)CNC(=O)[C@H](CC(C)C)NC(=O)CNC(=O)[C@H](CO)NC(=O)[C@H](CCC(N)=O)NC(=O)[C@H](C)NC(=O)CNC1=O [ANP, reference compound] | not increased | No change | No change | not increased | no significant change |  |  |  |  |  |  |  |  |  |  | 
2 | SLRRSSCFGGRMDRIGAQSGLGCNSFRYRITA-REDKQGWA (SLRRSSCFGGRMDRIGAQSGLGCNSFRYRITAREDKQGWA; listed as Homo sapiens) [LA-ANP] |  | No change | No change |  |  | greater diuretic effect | greater natriuretic effect | increased | decreased | 119.2±34.2 μEq/min. | 95.3±0.9% | 88.4±17.5 μEq/min. | increased | 1.08 ± 0.23 mL/min | 96.0±0.6% | significantly decreased
